According to US9790233B2, “Compositions and methods of modulating 15-PGDH activity” (CASE WESTERN RESERVE UNIVERSITY, priority 2012, dated 2017):

Legend:
A549 cells [1] = assay: Cellular toxicity on A549 cells (CellTiter-Glo); assay type: cell-based; settings: 24 hours; concentrations of up to 10 uM
Hepatocyte stability = assay type: in vitro ADME
Protocol: Time to inhibition refers to the time needed to inhibit the generation of NADH by 15-PGDH from the moment with drug is added into the reaction mix. Delta Tm refers to the shift in melting temperature of recombinant 15-PGDH in the presence of drug (with cofactor NADH also present). Concentration of Full Cell Line Reporter Induction refers to the concentration of drug that needs to be added to reporter cell line to achieve maximal induction of the 15-PGDH-luciferase gene fusion reporter cassette, as measured by luciferase assays. Hepatocyte stability refers to the half-life of compound in the presence of hepatocytes in culture. Toxicity refers to the concentration of compound needed to decrease cell numbers in a cell culture assay.

[2] = Survival of irradiated mice receiving a bone marrow transplant; assay type: in vivo, C57BL/6J mice
Excerpt: The experimental design is depicted in FIG. 50.
Under the conditions of the mouse colony during this study, control mice receiving 100,000-500,000 cells are all dead between days 4-13 of study. […] Such activity would be of particular utility in settings, such as transplantation with umbilical cord stem cells, in which donor cell numbers are limited.

[3] = tested on: 15-PGDH-luciferase fusion reporter in V9m, LS174T and V503 cells; assay: 15-PGDH-luciferase fusion gene reporter induction, stated for the three cell line backgrounds together; assay type: cell-based; settings: V9m, LS174T, V503; FIG. 1
CD45.2 marked marrow = assay: Competitive bone marrow transplant, blood chimerism; assay type: in vivo, C57BL/6J mice; settings: donors 5 mg/kg IP daily for 3 doses; weeks 12 and 16
Protocol: On day 3 mice were sacrificed, marrow flushed and mixed at a 1:1 ratio with vehicle treated CD45.1 marrow. 2 million whole BM cells were injected into the tail vein of lethally irradiated CD45.1 mice and percent chimerism measured via flow cytometry at weeks 8, 12, 16.

A549 cells [4] = assay: PGE2 levels in the medium of IL1-beta stimulated A549 cells; assay type: cell-based;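 further: PGE2 in the collected culture medium quantified by enzyme immunoassay (ELISA), with data drawn from three independent experiments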
[5] = Survival following acetaminophen (Tylenol) overdose; assay type: in vivo, C57BL/6J mice
15-PGDH mRNA = 15-PGDH mRNA levels by real-time PCR; assay type: cell-based
colon = assay: Dextran sodium sulfate (DSS) induced colitis; assay type: in vivo, FVB mice

CCCC[S+]([O-])c1sc2nc(-c3cccs3)cc(-c3ccccc3)c2c1N (stereo not drawn) [SW033291, 2-(butylsulfinyl)-4-phenyl-6-(thiophen-2-yl)thieno[2,3-b]pyridin-3-amine]
effect on CellTitre-Glo levels (A549 cells [1]): No effect on CellTitre-Glo levels | Hepatocyte stability (Hepatocyte stability; Table 4): Stable > | Hepatocyte stability (Hepatocyte stability; half-life in presence of hepatocytes in culture, Table 3): Stable > couple | number of surviving mice ([2]; 1 × 10^5 donor marrow cells, Day 2): 3 | number of surviving mice ([2]; 1 × 10^5 donor marrow cells, Day 3): 3 | number of surviving mice ([2]; 1 × 10^5 donor marrow cells, Day 4): 2 | number of surviving mice ([2]; 1 × 10^5 donor marrow cells, Day 5): 1 | number of surviving mice ([2]; 1 × 10^5 donor marrow cells, Day 6): 0 | number of surviving mice ([2]; 2 × 10^5 donor marrow cells, Day 2): 3 | number of surviving mice ([2]; 2 × 10^5 donor marrow cells, Day 3): 3 | number of surviving mice ([2]; 2 × 10^5 donor marrow cells, Day 4): 3 | number of surviving mice ([2]; 2 × 10^5 donor marrow cells, Day 5): 3 | number of surviving mice ([2]; 2 × 10^5 donor marrow cells, Day 6): 2 | number of surviving mice ([2]; 2 × 10^5 donor marrow cells, Day 7): 2 | number of surviving mice ([2]; 2 × 10^5 donor marrow cells, Day 8): 2 | number of surviving mice ([2]; 2 × 10^5 donor marrow cells, Day 9): 2 | number of surviving mice ([2]; 2 × 10^5 donor marrow cells, Day 10): 2 | number of surviving mice ([2]; 2 × 10^5 donor marrow cells, Day 11): 2 | number of surviving mice ([2]; 2 × 10^5 donor marrow cells, Day 12): 1 | number of surviving mice ([2]; 2 × 10^5 donor marrow cells, Day 13): 0 | number of surviving mice ([2]; 5 × 10^5 donor marrow cells, Day 2): 3 | number of surviving mice ([2]; 5 × 10^5 donor marrow cells, Day 3): 3 | number of surviving mice ([2]; 5 × 10^5 donor marrow cells, Day 4): 3 | number of surviving mice ([2]; 5 × 10^5 donor marrow cells, Day 5): 3 | number of surviving mice ([2]; 5 × 10^5 donor marrow cells, Day 6): 3 | number of surviving mice ([2]; 5 × 10^5 donor marrow cells, Day 7): 3 | number of surviving mice ([2]; 5 × 10^5 donor marrow cells, Day 8): 2 | number of surviving mice ([2]; 5 × 10^5 donor marrow cells, Day 9): 2 | number of surviving mice ([2]; 5 × 10^5 donor marrow cells, Day 10): 2 | number of surviving mice ([2]; 5 × 10^5 donor marrow cells, Day 11): 2 | number of surviving mice ([2]; 5 × 10^5 donor marrow cells, Day 12): 2 | number of surviving mice ([2]; 5 × 10^5 donor marrow cells, Day 13): 2 | number of surviving mice ([2]; 5 × 10^5 donor marrow cells, Day 19): 2 | number of surviving mice ([2]; 11 Gy, 5 mg/kg IP bid, 1 × 10^5 donor marrow cells, Day 1): 3 | number of surviving mice ([2]; 11 Gy, 5 mg/kg IP bid, 2 × 10^5 donor marrow cells, Day 1): 3 | number of surviving mice ([2]; 11 Gy, 5 mg/kg IP bid, 5 × 10^5 donor marrow cells, Day 1): 3 | survival of transplanted mice ([2]; mouse, in vivo): promoted survival of mice receiving a bone marrow transplant | luciferase activity of cells expressing 15-PGDH luciferase fusion construct [3]: increase luciferase activity | percent blood chimerism of CD45.2 marked cells (CD45.2 marked marrow): significantly increased | rank of PGE2 level in the medium (A549 cells [4]; 100 nM drug, FIG. 44): next highest level of PGE2 | PGE2 levels in medium (A549 cells [4]; IL1-beta 23 hours, compound added for the last 5 hours): clear inhibition of 15-PGDH activity | number of mice surviving ([5]; 1 dose/daily, first dose immediately after Tylenol, 24 hrs): 6 | number of mice surviving ([5]; 2 dose/daily, first dose immediately after Tylenol, 24 hrs): 6 | number of mice surviving ([5]; 2 dose/daily, first dose immediately after Tylenol, 48 hrs): 3 | number of mice surviving ([5]; 2 dose/daily, first dose immediately after Tylenol, 64 hrs): 3 | number of mice surviving ([5]; 2 dose/daily, first dose immediately after Tylenol, 72 hrs): 3 | number of mice surviving ([5]; 2 dose/daily, first dose immediately after Tylenol, 88 hr): 3 | number of mice surviving ([5]; 2 dose/daily, first dose immediately after Tylenol, 96 hr): 3 | number of mice surviving ([5]; 2 dose/daily, first dose immediately after Tylenol, 112 hr): 3 | number of mice surviving ([5]; 2 dose/daily, first dose immediately after Tylenol, 120 hr): 3 | number of mice surviving ([5]; acetaminophen 600 mg/kg, 5 mg/kg 1 dose/daily, first dose immediately after Tylenol injection, 16 hr): 6 | number of mice surviving ([5]; acetaminophen 600 mg/kg, 5 mg/kg 2 dose/daily, first dose immediately after Tylenol injection, 16 hr): 6 | Survival (number of mice) ([5]; acetaminophen 600 mg/kg, 5 mg/kg bid beginning 3 hours prior to acetaminophen, 6 doses, cohort of 6, 16 hr): 6 | Survival (number of mice) ([5]; acetaminophen 600 mg/kg, 5 mg/kg bid beginning 48 hours prior to acetaminophen, 9 doses, cohort of 12, 16 hr): 12 | mice survived at 120 hours ([5]; bid beginning 3 hours prior to acetaminophen): 3 of 6 | Survival (number of mice) ([5]; bid beginning 3 hours prior to acetaminophen, 24 hrs): 5 | Survival (number of mice) ([5]; bid beginning 3 hours prior to acetaminophen, 48 hrs): 3 | Survival (number of mice) ([5]; bid beginning 3 hours prior to acetaminophen, 64 hrs): 3 | Survival (number of mice) ([5]; bid beginning 3 hours prior to acetaminophen, 72 hrs): 3 | Survival (number of mice) ([5]; bid beginning 3 hours prior to acetaminophen, 88 hr): 3 | Survival (number of mice) ([5]; bid beginning 3 hours prior to acetaminophen, 96 hr): 3 | Survival (number of mice) ([5]; bid beginning 3 hours prior to acetaminophen, 112 hr): 3 | Survival (number of mice) ([5]; bid beginning 3 hours prior to acetaminophen, 120 hr): 3 | mice survived at 120 hours ([5]; bid beginning 48 hours prior to acetaminophen): 10 of 12 | Survival (number of mice) ([5]; bid beginning 48 hours prior to acetaminophen, 24 hrs): 12 | Survival (number of mice) ([5]; bid beginning 48 hours prior to acetaminophen, 40 hrs): 11 | Survival (number of mice) ([5]; bid beginning 48 hours prior to acetaminophen, 48 hrs): 10 | Survival (number of mice) ([5]; bid beginning 48 hours prior to acetaminophen, 64 hrs): 10 | Survival (number of mice) ([5]; bid beginning 48 hours prior to acetaminophen, 72 hrs): 10 | Survival (number of mice) ([5]; bid beginning 48 hours prior to acetaminophen, 88 hr): 10 | Survival (number of mice) ([5]; bid beginning 48 hours prior to acetaminophen, 96 hr): 10 | Survival (number of mice) ([5]; bid beginning 48 hours prior to acetaminophen, 112 hr): 10 | Survival (number of mice) ([5]; bid beginning 48 hours prior to acetaminophen, 120 hr): 10 | survival versus control mice ([5]; dosing begun immediately following acetaminophen, once or twice daily): No difference | 15-PGDH mRNA levels (real-time PCR) (15-PGDH mRNA; V503 cells): slight increase in 15-PGDH mRNA | 15-PGDH mRNA levels (real-time PCR) (15-PGDH mRNA; treated colon cancer cell lines): do not in general alter 15-PGDH mRNA levels | change from baseline weight versus control (colon; 22 days): greater weight at all time points | ulcer formation prevented (colon; colonoscopy days 8, 11, 15): two-thirds | reduction of length of ulcerated mucosa (colon; day 15): 61% | body weight and colon length versus control (colon; day 22): greater body weight and greater colon lengths | MEICS scores versus control (colon; days 8, 11 and 15): significantly less colitis activity
